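Grown in 96-well plates, cells were treated for 48 hours with each compound at five concentrations. Insufficient inhibition: endpoint recorded as highest concentration tested. GI50 = concentration required for 50% inhibition of growth.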 The source made the active and inactive calls. Cut-off read from the data, not from the text of the source: active = GI50 up to about 1.1 µM and inactive = higher.
Key:
Test in all cases: growth of human tumour cells (NCI), 48 h
[1] = tested on: NCI/ADR-RES
[2] = tested on: OVCAR-4
[3] = tested on: KM12
[4] = tested on: MCF7
[5] = tested on: NCI-H23
[6] = tested on: TK-10
[7] = tested on: RPMI-8226
[8] = tested on: OVCAR-3
[9] = tested on: DU-145
[10] = tested on: SF-268
[11] = tested on: CAKI-1
[12] = tested on: MDA-MB-231
[13] = tested on: SF-539
[14] = tested on: HCT-15
[15] = tested on: SF-295
[16] = tested on: RXF 393
[17] = tested on: K562
[18] = tested on: SK-MEL-2
[19] = tested on: HOP-92
[20] = tested on: SN12C
[21] = tested on: HL-60
[22] = tested on: A498
[23] = tested on: COLO 205
[24] = tested on: NCI-H522
[25] = tested on: UACC-62
[26] = tested on: OVCAR-8
[27] = tested on: OVCAR-5
[28] = tested on: SK-MEL-28
[29] = tested on: LOX IMVI
[30] = tested on: UO-31
[31] = tested on: UACC-257
[32] = tested on: PC-3
[33] = tested on: MDA-MB-435
[34] = tested on: Hs-578T
[35] = tested on: NCI-H460
[36] = tested on: HCC 2998
[37] = tested on: SNB-19
[38] = tested on: CCRF-CEM
[39] = tested on: A549
[40] = tested on: ACHN
[41] = tested on: SK-MEL-5
[42] = tested on: T47D
[43] = tested on: U-251
[44] = tested on: SW-620
[45] = tested on: HT-29
[46] = tested on: SK-OV-3
[47] = tested on: HOP-62
[48] = tested on: HCT-116
[49] = tested on: 786-0
[50] = tested on: IGROV-1
[51] = tested on: M14
[52] = tested on: EKVX
[53] = tested on: MDA-N
[54] = tested on: SR
[55] = tested on: BT-549
[56] = tested on: NCI-H226
[57] = tested on: Malme-3M
[58] = tested on: MOLT-4
[59] = tested on: SNB-75

In the case of C=CCSC1=N/C(=C\c2ccc(Cl)cc2)C(=O)N1CC=C, the GI50 [1] is reported as 34 µM (inactive), the GI50 [2] is reported as 21.5 µM (inactive) and the GI50 [3] is reported as 24.9 µM (inactive). For the same molecule, the GI50 [4] was 18.9 µM (inactive), the GI50 [5] was 24.6 µM (inactive) and the GI50 [6] was 55.7 µM (inactive). The GI50 [7] was 17.4 µM (inactive), the GI50 [8] was 43.7 µM (inactive) and the GI50 [9] was 20.5 µM (inactive). For the same molecule, the GI50 [10] was 40.6 µM (inactive), the GI50 [11] was 37 µM (inactive) and the GI50 [12] was 30.2 µM (inactive). The GI50 [13] was 28.8 µM (inactive), the GI50 [14] was 28.2 µM and the GI50 [15] was 34.8 µM (inactive). For the same molecule, the GI50 [16] was 19.8 µM (inactive), the GI50 [17] was 29.5 µM (inactive) and the GI50 [18] was 27.7 µM (inactive). The GI50 [19] was 22.1 µM (inactive), the GI50 [20] was 34.3 µM (inactive) and the GI50 [21] was 9.35 µM (inactive). For the same molecule, the GI50 [22] was 13.6 µM (inactive), the GI50 [23] was 33.3 µM (inactive) and the GI50 [24] was 23 µM (inactive). For the same molecule, the GI50 [25] was 30.2 µM (inactive), the GI50 [26] was 47.2 µM (inactive) and the GI50 [27] was 63.8 µM (inactive). The GI50 [28] was 50.2 µM (inactive), the GI50 [29] was 42.9 µM (inactive) and the GI50 [30] was 34.7 µM (inactive). For the same molecule, the GI50 [31] was 26.4 µM (inactive), the GI50 [32] was 20 µM (inactive) and the GI50 [33] was 28.8 µM (inactive). The GI50 [34] was 68.7 µM (inactive), the GI50 [35] was 43.7 µM (inactive) and the GI50 [36] was 34.8 µM (inactive). For the same molecule, the GI50 [37] was 91.4 µM (inactive), the GI50 [38] was 21.4 µM (inactive) and the GI50 [39] was 32.7 µM (inactive). The GI50 [40] was 32.6 µM (inactive), the GI50 [41] was 16.1 µM (inactive) and the GI50 [42] was 23.4 µM (inactive). For the same molecule, the GI50 [43] was 22 µM (inactive), the GI50 [44] was 30.3 µM (inactive) and the GI50 [45] was 30.5 µM (inactive). For the same molecule, the GI50 [46] was 42.8 µM (inactive), the GI50 [47] was 41.9 µM (inactive) and the GI50 [48] was 25.1 µM (inactive). For the same molecule, the GI50 [49] was 35.7 µM (inactive), the GI50 [50] was 53.8 µM (inactive) and the GI50 [51] was 66.2 µM (inactive). The GI50 [52] was 17.1 µM (inactive), the GI50 [53] was 32.7 µM (inactive) and the GI50 [54] was 27.4 µM (inactive). For the same molecule, the GI50 [55] was 23.5 µM (inactive).
COC1CC(N)C(O)C(C)O1 (stereo unspecified) was tested, and the GI50 [1] was > 100 µM (inactive), the GI50 [2] was > 100 µM (inactive) and the GI50 [3] was > 100 µM (inactive). The GI50 [4] was > 100 µM (inactive), the GI50 [56] was > 100 µM (inactive) and the GI50 [5] was > 100 µM (inactive). For the same molecule, the GI50 [7] was > 100 µM (inactive), the GI50 [8] was > 100 µM (inactive) and the GI50 [9] was > 100 µM (inactive). For the same molecule, the GI50 [10] was > 100 µM (inactive), the GI50 [11] was > 100 µM (inactive) and the GI50 [12] was > 100 µM (inactive). For the same molecule, the GI50 [13] was > 100 µM (inactive), the GI50 [14] was greater than 100 µM and the GI50 [15] was > 100 µM (inactive). For the same molecule, the GI50 [16] was > 100 µM (inactive), the GI50 [17] was > 100 µM (inactive) and the GI50 [19] was > 100 µM (inactive). The GI50 [20] was > 100 µM (inactive), the GI50 [21] was > 100 µM (inactive) and the GI50 [22] was > 100 µM (inactive). For the same molecule, the GI50 [23] was > 100 µM (inactive), the GI50 [24] was > 100 µM (inactive) and the GI50 [25] was > 100 µM (inactive). For the same molecule, the GI50 [26] was > 100 µM (inactive), the GI50 [27] was > 100 µM (inactive) and the GI50 [28] was > 100 µM (inactive). The GI50 [29] was > 100 µM (inactive), the GI50 [30] was > 100 µM (inactive) and the GI50 [57] was > 100 µM (inactive). For the same molecule, the GI50 [31] was > 100 µM (inactive), the GI50 [32] was > 100 µM (inactive) and the GI50 [58] was > 100 µM (inactive). For the same molecule, the GI50 [33] was > 100 µM (inactive), the GI50 [59] was > 100 µM (inactive) and the GI50 [34] was > 100 µM (inactive). For the same molecule, the GI50 [35] was > 100 µM (inactive), the GI50 [36] was > 100 µM (inactive) and the GI50 [37] was > 100 µM (inactive). For the same molecule, the GI50 [38] was > 100 µM (inactive), the GI50 [40] was > 100 µM (inactive) and the GI50 [41] was > 100 µM (inactive). The GI50 [42] was > 100 µM (inactive), the GI50 [43] was > 100 µM (inactive) and the GI50 [44] was > 100 µM (inactive). The GI50 [45] was > 100 µM (inactive), the GI50 [46] was > 100 µM (inactive) and the GI50 [47] was > 100 µM (inactive). For the same molecule, the GI50 [48] was > 100 µM (inactive), the GI50 [49] was > 100 µM (inactive) and the GI50 [50] was > 100 µM (inactive). For the same molecule, the GI50 [51] was > 100 µM (inactive), the GI50 [52] was > 100 µM (inactive) and the GI50 [53] was > 100 µM (inactive). For the same molecule, the GI50 [54] was > 100 µM (inactive) and the GI50 [55] was > 100 µM (inactive).

Source: ChEMBL document CHEMBL1201862, “PubChem BioAssay data set” (2004)
